Data reported in ChEMBL document CHEMBL5442168, “ASAP - In vitro liver microsomal stability” (2024).
“And” between values parts separate entries of the source, which are not always exact repeats. Equal values may be shown once.

Experiments:
[1] = (§1) Human liver microsomal stability of compound in microsomal protein, PBS buffer pH 7.4, NADPH, glucose-6-phosphate and glucose-6-phosphate dehydrogenase media. Aliquotes were taken at 5 time points and after stopping the reaction, supernatants were analyzed using HPLC coupled with a tandem mass spectrometer. The elimination constant, half-life, and intrinsic clearance are determined as results using linear regression analysis. The assay has been performed by Enamine biological services, Bienta Ltd.The protocol is publicly available: dx.doi.org/10.17504/protocols.io.5qpvokdb9l4o/v1; type: ADME, microsomes, Microsome; details: for half-life / microsomal CLint: liver microsomes; for Remaining / Remaining (without cofactor) / CLint / T1/2: microsomes
[2] = as §1, with “Mouse” for “Human”; type: ADME, microsomes, Microsome; details: for half-life / microsomal CLint: liver microsomes; for Remaining / Remaining (without cofactor) / CLint / T1/2: microsomes
For Remaining (without cofactor) in this document: time not given here.
For Remaining in this document: time not given here.

SMILES	half-life [1] [min]	microsomal CLint [1] [µL/min/mg]	Remaining [1]	Remaining (without cofactor) [1]	half-life [2] [min]	microsomal CLint [2] [µL/min/mg]	Remaining [2]	Remaining (without cofactor) [2]	CLint [1] [µL/min/mg]	T1/2 [1] [min]	CLint [2]	T1/2 [2]
CNC(=O)c1c[nH]c2ncnc(N[C@@H](c3ccc4c(c3)NC(=O)CO4)C(C)C)c12	19.5	86	23%	98%	14.8	113	16%	95%	–	–	–	–
O=C(Nc1cccc2c(C(=O)N[C@@H]3c4ccccc4C[C@@H]3C(=O)O)c[nH]c12)NC1CC1	280	6	88%	86%	454	4	95%	105%	–	–	–	–
CC(C)[C@@H](Nc1ncnc2[nH]c(-c3cnn(CC(N)=O)c3)cc12)c1ccc2c(c1)NC(=O)CO2	99.2	17	73%	91%	156	11	84%	102%	–	–	–	–
CC(C)[C@H](CO)Nc1ncnc2[nH]ccc12	289	6	119%	99%	171	10	90%	93%	–	–	–	–
CC(C)[C@@H](Nc1ncnc2[nH]c(-c3cnn(C)c3C#N)cc12)c1ccc2c(c1)NC(=O)CO2	16.6	100	18% and 44%	93% and 109%	9.4	177	6% and 10%	97% and 102%	52	32.3	147 µL/min/mg	11.3 min
CC(C)[C@@H](Nc1ncnc2[nH]ccc12)c1ccc2c(c1)S(=O)(=O)CCO2	91.3	18	74%	92%	24.2	69	33%	111%	–	–	–	–
Cn1ncc(-c2cc3c(N[C@@H](c4ccc5c(c4)OCCO5)C(C)(C)C)ncnc3[nH]2)c1C#N	19.6	85	22%	109%	8.4	199	4%	100%	–	–	–	–

The next lines start with the values.

half-life [1] [min]	microsomal CLint [1] [µL/min/mg]	Remaining [1]	Remaining (without cofactor) [1]	half-life [2] [min]	microsomal CLint [2] [µL/min/mg]	Remaining [2]	Remaining (without cofactor) [2]	CLint [1] [µL/min/mg]	T1/2 [1] [min]	CLint [2]	T1/2 [2]	SMILES
44.7	37	53% and 69%	99%	–	–	–	103% and 117%	21	78.6	138 µL/min/mg and 55 µL/min/mg	12.1 min and 30.4 min	CC(C)[C@@H](Nc1ncnc2[nH]ccc12)c1ccc2c(c1)S(=O)(=O)CCC2
2.2	746	0%	99%	8.5	197	4%	106%	–	–	–	–	CNC(=O)c1cccc(-c2cc3c(N[C@H](c4ccc5c(c4)S(=O)(=O)CCC5)C(C)C)ncnc3[nH]2)c1
2.2	752	0%	93%	7.6	219	3%	93%	–	–	–	–	CC(C)[C@@H](Nc1ncnc2[nH]c(-c3ccc4nnn(C)c4c3)cc12)c1ccc2c(c1)S(=O)(=O)CCC2
83.8	20	70%	106%	151	11	80%	92%	–	–	–	–	CC(C)[C@@H](Nc1ncnc2[nH]c(C(=O)N[C@@H]3CCN(C)C3)cc12)c1ccc2c(c1)S(=O)(=O)CCC2
